Measured values as given in patent EP2998295A1, “Aryl substituted naphthyl sulfonamide derivatives as keap-1 modulators for the treatment of diabetes, obesity, dyslipidemia and related disorders” (SANOFI, priority 2014, dated 2016).

What follows are compounds tested against T1, human Keap1 kelch domain (amino acids Ala321 -Thr609) (Homo sapiens, UniProt Q14145) (assay: Keap1-Nrf2 peptide binding assay (fluorescence polarisation)). Details: Keap1 kelch domain 20 nM, fluorescently labeled Nrf2 peptide 50 nM.
T1 construct: human Keap1 kelch domain (amino acids Ala321 -Thr609)
T1 sequence (Q14145 321-609): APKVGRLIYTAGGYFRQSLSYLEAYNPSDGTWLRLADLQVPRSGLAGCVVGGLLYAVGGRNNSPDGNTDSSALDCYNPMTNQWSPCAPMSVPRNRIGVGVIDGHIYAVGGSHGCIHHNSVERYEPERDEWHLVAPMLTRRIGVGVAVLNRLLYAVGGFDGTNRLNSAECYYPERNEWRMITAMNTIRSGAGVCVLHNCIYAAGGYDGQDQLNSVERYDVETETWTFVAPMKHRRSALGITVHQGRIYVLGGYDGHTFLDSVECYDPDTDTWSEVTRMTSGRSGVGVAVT
Method: A fluorescence polarisation assay was used to measure binding of the human Keap1 kelch domain (amino acids Ala321 -Thr609) to a fluorescently labeled peptide containing a Keap1 binding site of human Nrf2 (Alexa633-AFFAQLQLDEETGEFL; JPT Technologies, Berlin, Germany). Two microliters of test compound in reaction buffer (phosphate-buffered saline, 2 mM DL-dithiothreitol, 0.015 % (v/v) Brij-35) containing 6 % (v/v) DMSO were mixed with two microliters of the Keap1 kelch domain in reaction buffer in a black 384-well small volume microtiter plate and incubated at ambient temperature for 15 minutes. Thereafter, two microliters were added of the fluorescently labeled Nrf2 peptide in reaction buffer, and the mixture was incubated for a further 30 minutes at ambient temperature. Final concentrations of the Keap1 kelch domain and the fluorescently labeled Nrf2 peptide were 20 nM and 50 nM, respectively.
Fluorescence polarization (FP) was measured at excitation and emission wavelengths of 635 nm and 660 nm, respectively. Positive controls for binding (two microliters of reaction buffer containing 6 % (v/v) DMSO instead of test compound in the same buffer) and negative controls (as positive controls, but without Keap1 kelch domain) were included on each microtiter plate. Data were expressed as percent-inhibition values: percent inhibition = 100⋅(1(|FPcompound-FPnegative control|)/(|FPpositive control-FPnegative control|)) [formula]
IC50 values were determined by testing different compound concentrations and fitting the resulting percent-inhibition values to the following equation using XLFit4: percent inhibition = A + (B-A)/(1 + (((IC50)/([Compound])))^D) [formula]
Parameter A was set to zero, pre-fit values for parameters B and D were set to 100 and 1, respectively.
`Cc1cc(C)c(C)c(S(=O)(=O)Nc2cc(-c3cccc(C(=O)O)c3)cc3ccccc23)c1C` [Example 4, 3-[4-[(2,3,5,6-tetramethylphenyl)sulfonylamino]-2-naphthyl]benzoic acid] was tested, and the IC50 was 1500 nM. For `CC(=O)Nc1cc(C(=O)O)cc(-c2cc(NS(=O)(=O)c3c(C)c(C)cc(C)c3C)c3ccccc3c2)c1` [Example 9, 3-acetamido-5-[4-[(2,3,5,6-tetramethylphenyl)sulfonylamino]-2-naphthyl]benzoic acid], the IC50 was 400 nM. `Cc1cc(C)c(C)c(S(=O)(=O)Nc2cc(-c3ccc(C(=O)O)cc3)cc3ccccc23)c1C` [Example 1, 4-[4-[(2,3,5,6-tetramethylphenyl)sulfonylamino]-2-naphthyl]benzoic acid] was tested, and the IC50 was 2500 nM.

Same assay, conditions: Keap1 kelch domain 20 nM, fluorescently labeled Nrf2 peptide 50 nM, read-out: IC50
With `Cc1cc(C)c(C)c(S(=O)(=O)Nc2cc(-c3ccc(Cl)c(C(=O)O)c3)cc3ccccc23)c1C` [Example 8, 2-chloro-5-[4-[(2,3,5,6-tetramethylphenyl)sulfonylamino]-2-naphthyl]benzoic acid] the IC50 was 1600 nM. With `Cc1cc(C)c(C)c(S(=O)(=O)Nc2cc(-c3ccc(C(=O)O)s3)cc3ccccc23)c1C` [Example 12, 5-[4-[(2,3,5,6-tetramethylphenyl)sulfonylamino]-2-naphthyl]thiophene-2-carboxylic acid] the IC50 was 12000 nM. `Cc1cc(C)c(C)c(S(=O)(=O)Nc2cc(-c3ccc(O)c(C(=O)O)c3)cc3ccccc23)c1C` [Example 2, 2-hydroxy-5-[4-[(2,3,5,6-tetramethylphenyl)sulfonylamino]-2-naphthyl]benzoic acid] was tested, and the IC50 was 4100 nM. `Cc1cc(C)c(C)c(S(=O)(=O)Nc2cc(-c3cccc(C(=O)O)c3F)cc3ccccc23)c1C` [Example 6, 2-fluoro-3-[4-[(2,3,5,6-tetramethylphenyl)sulfonylamino]-2-naphthyl]benzoic acid] gave an IC50 of 5600 nM. Compound `Cc1cc(C)c(C)c(S(=O)(=O)Nc2cc(-c3cncc(C(=O)O)c3)cc3ccccc23)c1C` [Example 3, 5-[4-[(2,3,5,6-tetramethylphenyl)sulfonylamino]-2-naphthyl]pyridine-3-carboxylic acid] has an IC50 of 1900 nM. For `Cc1cc(C)c(C)c(S(=O)(=O)Nc2cc(-c3cc(F)cc(C(=O)O)c3)cc3ccccc23)c1C` [Example 5, 3-fluoro-5-[4-[(2,3,5,6-tetramethylphenyl)sulfonylamino]-2-naphthyl]benzoic acid], the IC50 was 2100 nM. `Cc1cc(C)c(C)c(S(=O)(=O)Nc2cc(-c3cc(Cl)cc(C(=O)O)c3)cc3ccccc23)c1C` [Example 7, 3-chloro-5-[4-[(2,3,5,6-tetramethylphenyl)sulfonylamino]-2-naphthyl]benzoic acid] was tested, and the IC50 was 3300 nM. Compound `Cc1cc(C)c(C)c(S(=O)(=O)Nc2cc(-c3cc(C(=O)O)n(C)n3)cc3ccccc23)c1C` [Example 11, 2-methyl-5-[4-[(2,3,5,6-tetramethylphenyl)sulfonylamino]-2-naphthyl]pyrazole-3-carboxylic acid] has an IC50 of 5700 nM. `Cc1cc(C)c(C)c(S(=O)(=O)Nc2cc(-c3ccc(F)c(C(=O)O)c3)cc3ccccc23)c1C` [Example 10, 2-fluoro-5-[4-[(2,3,5,6-tetramethylphenyl)sulfonylamino]-2-naphthyl]benzoic acid] showed an IC50 of 1800 nM.
